Experimental findings from patent publication US10077261B2, “Imidazolin-5-one derivative useful as FASN inhibitors for the treatment of cancer” (Janssen Pharmaceutica NV, priority 2012, dated 2018) are described below.

The target of the assay is T1, hFASN enzyme (full length) (Homo sapiens, UniProt P49327).
T1 construct: 10 μL hFASN enzyme (full length, 300 ng, purified in house); made in house
The assay is described as follows: Fatty Acid Synthase (FASN) inhibition scintillation proximity assay. As to conditions: for inhibition at 10 µM: read-out: Human FASN % inhibition @ 10 μM, 10 μM test compound; for IC50: read-out: Human FASN pIC50 (converted). It counts as biochemical. The gist of the method: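 Proximity read-out: hydrophobic ^3H-palmitate formed from ^3H-acetyl-CoA and malonyl-CoA binds streptavidin imaging beads, imaged at 610±20 nm at least 24 h after stopping. Enzyme was in-house purified full-length hFASN, 300 ng, in pH 7.5 phosphate/DTT buffer; compound series 30 μM down to 0.01 μM, normalized to controls, 4-parameter fit.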

Molecules are shown by their SMILES.

T1 sequence (P49327 whole entry): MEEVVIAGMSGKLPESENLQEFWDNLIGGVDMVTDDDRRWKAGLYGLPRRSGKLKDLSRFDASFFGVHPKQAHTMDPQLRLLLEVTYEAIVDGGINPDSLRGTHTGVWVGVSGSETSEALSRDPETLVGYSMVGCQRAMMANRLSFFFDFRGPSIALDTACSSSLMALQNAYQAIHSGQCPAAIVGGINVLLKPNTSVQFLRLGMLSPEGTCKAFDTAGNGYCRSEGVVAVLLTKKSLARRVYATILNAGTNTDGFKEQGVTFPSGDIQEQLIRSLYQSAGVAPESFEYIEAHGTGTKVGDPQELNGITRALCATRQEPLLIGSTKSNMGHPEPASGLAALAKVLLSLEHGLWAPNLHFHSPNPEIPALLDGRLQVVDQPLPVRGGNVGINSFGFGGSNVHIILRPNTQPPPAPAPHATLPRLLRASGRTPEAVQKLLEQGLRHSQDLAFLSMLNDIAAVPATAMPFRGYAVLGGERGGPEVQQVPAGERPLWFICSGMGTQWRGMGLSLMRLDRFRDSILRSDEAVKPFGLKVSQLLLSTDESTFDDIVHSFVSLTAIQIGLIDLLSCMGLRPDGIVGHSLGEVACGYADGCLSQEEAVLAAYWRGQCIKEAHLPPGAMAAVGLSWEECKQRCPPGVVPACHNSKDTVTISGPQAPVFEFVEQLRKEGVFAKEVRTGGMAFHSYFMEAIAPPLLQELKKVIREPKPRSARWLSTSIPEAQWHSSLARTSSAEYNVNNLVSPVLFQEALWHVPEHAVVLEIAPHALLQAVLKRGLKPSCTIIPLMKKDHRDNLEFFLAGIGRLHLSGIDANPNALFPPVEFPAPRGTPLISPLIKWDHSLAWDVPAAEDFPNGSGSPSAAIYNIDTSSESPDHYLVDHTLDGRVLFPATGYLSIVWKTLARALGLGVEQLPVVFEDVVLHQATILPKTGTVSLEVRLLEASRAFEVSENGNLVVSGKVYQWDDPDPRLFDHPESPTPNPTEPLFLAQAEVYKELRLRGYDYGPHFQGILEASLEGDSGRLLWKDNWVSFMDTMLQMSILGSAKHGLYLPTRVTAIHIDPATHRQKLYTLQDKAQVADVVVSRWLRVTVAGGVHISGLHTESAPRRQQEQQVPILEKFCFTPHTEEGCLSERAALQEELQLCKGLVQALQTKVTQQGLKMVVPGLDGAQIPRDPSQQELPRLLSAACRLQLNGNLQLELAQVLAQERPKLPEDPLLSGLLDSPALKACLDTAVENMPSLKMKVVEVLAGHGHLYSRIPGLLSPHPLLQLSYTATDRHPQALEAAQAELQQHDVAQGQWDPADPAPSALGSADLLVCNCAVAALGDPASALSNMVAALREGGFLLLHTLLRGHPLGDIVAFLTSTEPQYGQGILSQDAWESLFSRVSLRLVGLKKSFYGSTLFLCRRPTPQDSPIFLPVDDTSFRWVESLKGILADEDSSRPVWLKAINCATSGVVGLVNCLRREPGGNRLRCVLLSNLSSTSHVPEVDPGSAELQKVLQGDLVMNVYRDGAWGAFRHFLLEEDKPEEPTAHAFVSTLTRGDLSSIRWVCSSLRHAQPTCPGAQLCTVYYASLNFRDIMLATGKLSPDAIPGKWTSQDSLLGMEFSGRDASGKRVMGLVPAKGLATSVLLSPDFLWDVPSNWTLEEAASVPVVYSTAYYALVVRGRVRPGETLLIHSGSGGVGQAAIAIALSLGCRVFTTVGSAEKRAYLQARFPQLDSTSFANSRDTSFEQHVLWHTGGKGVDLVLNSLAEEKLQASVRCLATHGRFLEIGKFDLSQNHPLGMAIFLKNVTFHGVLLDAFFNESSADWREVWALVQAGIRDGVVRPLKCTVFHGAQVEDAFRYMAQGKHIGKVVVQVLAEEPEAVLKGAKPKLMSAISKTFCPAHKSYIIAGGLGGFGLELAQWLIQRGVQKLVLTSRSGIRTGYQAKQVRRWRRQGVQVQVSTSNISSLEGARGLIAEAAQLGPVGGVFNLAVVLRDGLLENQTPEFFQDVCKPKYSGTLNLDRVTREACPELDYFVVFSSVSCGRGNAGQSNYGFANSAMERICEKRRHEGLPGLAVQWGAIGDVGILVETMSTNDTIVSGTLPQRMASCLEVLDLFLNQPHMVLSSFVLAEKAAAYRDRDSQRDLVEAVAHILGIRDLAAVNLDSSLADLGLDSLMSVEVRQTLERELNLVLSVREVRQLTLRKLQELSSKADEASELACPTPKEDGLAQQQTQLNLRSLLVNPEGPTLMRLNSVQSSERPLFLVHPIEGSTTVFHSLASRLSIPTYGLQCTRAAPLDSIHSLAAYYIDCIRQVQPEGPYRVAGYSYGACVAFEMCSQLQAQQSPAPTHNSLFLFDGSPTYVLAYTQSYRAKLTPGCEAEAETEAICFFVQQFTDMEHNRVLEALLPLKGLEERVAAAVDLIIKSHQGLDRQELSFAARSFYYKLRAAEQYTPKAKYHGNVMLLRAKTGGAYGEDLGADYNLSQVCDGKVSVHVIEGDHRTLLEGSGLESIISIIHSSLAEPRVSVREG

On to `O=C(C1CC1)N1CC(CN2C(=O)C3(CC3)N=C2c2ccc(-c3ccc4c(cnn4C4CC4)c3)cc2)C1` [compound 803, 6-((1-(cyclopropanecarbonyl)azetidin-3-yl)methyl)-5-(4-(1-cyclopropyl-1H-indazol-5-yl)phenyl)-4,6-diazaspiro[2.4]hept-4-en-7-one], for which the inhibition at 10 µM was 48% and the IC50 is more than 10 µM.
For `O=C(C1CC1)N1CC(CN2C(=O)C3(CC3)N=C2c2ccc(-c3ccc4c(cnn4CC4CC4)c3)cc2)C1` [compound 804, 6-((1-(cyclopropanecarbonyl)azetidin-3-yl)methyl)-5-(4-(1-(cyclopropylmethyl)-1H-indazol-5-yl)phenyl)-4,6-diazaspiro[2.4]hept-4-en-7-one], in that order: 41% and more than 10 µM.
In the case of `Cc1cc(-c2ccc3c(cnn3C)c2)ccc1C1=NC2(CC2)C(=O)N1CC1CN(C(=O)c2cccnc2)C1` [compound 805, 5-(2-methyl-4-(1-methyl-1H-indazol-5-yl)phenyl)-6-((1-nicotinoylazetidin-3-yl)methyl)-4,6-diazaspiro[2.4]hept-4-en-7-one], the inhibition at 10 µM was found to be 14% and the IC50 is more than 10 µM.
On to `O=C(C1CC1)N1CC(CN2C(=O)C3(CC3)N=C2c2ccc(-c3ccc(N4CCOCC4)nc3)cc2)C1` [compound 806, 6-((1-(cyclopropanecarbonyl)azetidin-3-yl)methyl)-5-(4-(6-morpholinopyridin-3-yl)phenyl)-4,6-diazaspiro[2.4]hept-4-en-7-one], for which the inhibition at 10 µM is -6% and the IC50 was more than 10 µM.
Turning to `CC(C)n1ncc2cc(-c3ccc(C4=NC5(CC5)C(=O)N4CC4CN(C(=O)C5CC5)C4)cc3)ccc21` [compound 807, 6-((1-(cyclopropanecarbonyl)azetidin-3-yl)methyl)-5-(4-(1-isopropyl-1H-indazol-5-yl)phenyl)-4,6-diazaspiro[2.4]hept-4-en-7-one], the inhibition at 10 µM was 7% and the IC50 is more than 10 µM.
With `CC(C)n1cc2cc(-c3ccc(C4=NC5(CC5)C(=O)N4CC4CN(C(=O)C5CC5)C4)cc3)ccc2n1` [compound 808, 6-((1-(cyclopropanecarbonyl)azetidin-3-yl)methyl)-5-(4-(2-isopropyl-2H-indazol-5-yl)phenyl)-4,6-diazaspiro[2.4]hept-4-en-7-one], the inhibition at 10 µM turned out to be 31% and the IC50 is more than 10 µM.
The matching figures for `O=C1CCc2ccc(-c3ccc(C4=NC5(CC5)C(=O)N4C[C@@H]4CCN(C(=O)C5CC5)C4)cc3)cc2N1` [compound 809, (R)-7-(4-(6-((1-(cyclopropanecarbonyl)pyrrolidin-3-yl)methyl)-7-oxo-4,6-diazaspiro[2.4]hept-4-en-5-yl)phenyl)-3,4-dihydroquinolin-2(1H)-one]: 29% and more than 10 µM.
The matching figures for `CC(C)n1cc2cc(-c3ccc(C4=NC5(CC5)C(=O)N4C[C@@H]4CCN(C(=O)C5CC5)C4)cc3)ccc2n1` [compound 811, (R)-6-((1-(cyclopropanecarbonyl)pyrrolidin-3-yl)methyl)-5-(4-(2-isopropyl-2H-indazol-5-yl)phenyl)-4,6-diazaspiro[2.4]hept-4-en-7-one]: 35% and more than 10 µM.
In the case of `Cc1ccc(-c2ccc(-c3ccc(C4=NC5(CC5)C(=O)N4C[C@H]4CCCN(C(=O)C5CC5)C4)cc3)cc2)cc1` [compound 812, (S)-6-((1-(cyclopropanecarbonyl)piperidin-3-yl)methyl)-5-(4″-methyl[1,1′:4′,1″- terphenyl]-4-yl)-4,6-diazaspiro[2.4]hept-4-en-7-one], the inhibition at 10 µM came out at 5% and the IC50 is more than 10 µM.
For `O=C(C1CC1)N1CCC[C@H](CN2C(=O)C3(CC3)N=C2c2ccc(-c3ccc(-c4cccc(Cl)c4)cc3)cc2)C1` [compound 813, (S)-5-(3″-chloro-[1,1′:4′,1″-tertphenyl]-4-yl)-6-((1-(cyclopropanecarbonyl)piperidin-3-yl)methyl)-4,6-diazaspiro[2.4]hept-4-en-7-one], in that order: 2% and more than 10 µM.
Regarding `Cc1cc(C2=NC3(CC3)C(=O)N2CC2CN(C(=O)C3CC3)C2)ccc1-c1ccc2oc(C)c(C)c2c1` [compound 814, 6-((1-(cyclopropanecarbonyl)azetidin-3-yl)methyl)-5-(4-(2,3-dimethylbenzofuran-5-yl)-3-methylphenyl)-4,6-diazaspiro[2.4]hept-4-en-7-one], the inhibition at 10 µM was found to be 39% and the IC50 is more than 10 µM.
With `Cn1cc(-c2ccc(-c3ccc(C4=NC5(CC5)C(=O)N4C[C@H]4CCCN(C(=O)C5CC5)C4)cc3)cc2)cn1` [compound 815, (S)-6-((1-(cyclopropanecarbonyl)piperidin-3-yl)methyl)-5-(4′-(1-methyl-1H-pyrazol-4-yl)-[1,1′-biphenyl]-4-yl)-4,6-diazaspiro[2.4]hept-4-en-7-one], the inhibition at 10 µM turned out to be 1% and the IC50 is more than 10 µM.
The matching figures for `O=C(C1CC1)N1CCC[C@H](CN2C(=O)C3(CC3)N=C2c2ccc(-c3ccc4[nH]ncc4c3)cc2)C1` [compound 816, (S)-5-(4-(1H-indazol-5-yl)phenyl)-6-((1-(cyclopropanecarbonyl)piperidin-3-yl)methyl)-4,6-diazaspiro[2.4]hept-4-en-7-one]: 4% and more than 10 µM.
The matching figures for `O=C(C1CC1)N1CCC[C@H](CN2C(=O)C3(CC3)N=C2c2ccc(-c3ccc4sccc4c3)cc2)C1` [compound 817, (S)-5-(4-(benzo[b]thiophen-5-yl)phenyl)-6-((1-(cyclopropanecarbonyl)piperidin-3-yl)methyl)-4,6-diazaspiro[2.4]hept-4-en-7-one]: 1% and more than 10 µM.
`O=C(C1CC1)N1CCC[C@H](CN2C(=O)C3(CC3)N=C2c2ccc(-c3ccc4occc4c3)cc2)C1` [compound 818, (S)-5-(4-(benzofuran-5-yl)phenyl)-6-((1-(cyclopropanecarbonyl)piperidin-3-yl)methyl)-4,6-diazaspiro[2.4]hept-4-en-7-one]: the inhibition at 10 µM amounted to 2% and the IC50 was more than 10 µM.
With `Cn1ncc2cc(-c3ccc(C4=NC5(CC5)C(=O)N4C[C@H]4CCCN(C(=O)C5CC5)C4)cc3)ccc21` [compound 819, (S)-6-((1-(cyclopropanecarbonyl)piperidin-3-yl)methyl)-5-(4-(1-methyl-1H-indazol-5-yl)phenyl)-4,6-diazaspiro[2.4]hept-4-en-7-one], the inhibition at 10 µM was determined as 10%.
`O=C(C1CC1)N1CCC[C@@H](CN2C(=O)C3(CC3)N=C2c2ccc(-c3ccc(-c4cccc(Cl)c4)cc3)cc2)C1` [compound 820, (R)-5-(3″-chloro-[1,1′:4′,1″-terphenyl]-4-yl)-6-((1-(cyclopropanecarbonyl)piperidin-3-yl)methyl)-4,6-diazaspiro[2.4]hept-4-en-7-one]: the inhibition at 10 µM was found to be 33% and the IC50 is more than 10 µM.
As for `Cc1ccc(-c2ccc(-c3ccc(C4=NC5(CC5)C(=O)N4C[C@@H]4CCCN(C(=O)C5CC5)C4)cc3)cc2)cc1` [compound 821, (R)-6-((1-(cyclopropanecarbonyl)piperidin-3-yl)methyl)-5-(4″-methyl-[1,1′:4′,1″- terphenyl]-4-yl)-4,6-diazaspiro[2.4]hept-4-en-7-one], the inhibition at 10 µM was found to be 7% and the IC50 is more than 10 µM.
The matching figures for `Cc1cc(-c2cnc3c(c2)OCCN3C)ccc1C1=NC2(CCCC2)C(=O)N1C[C@@H]1CCN(C(=O)C2CC2)C1` [compound 822, (R)-3-((1-(cyclopropanecarbonyl)pyrrolidin-3-yl)methyl)-2-(2-methyl-4-(4-methyl-3,4-dihydro-2H-pyrido[3,2-b][1,4]oxazin-7-yl)phenyl)-1,3-diazaspiro[4.4]non-1-en-4-one]: 25% and more than 10 µM.
As for `Cn1cc(-c2ccc(-c3ccc(C4=NC5(CC5)C(=O)N4C[C@@H]4CCCN(C(=O)C5CC5)C4)cc3)cc2)cn1` [compound 823, (R)-6-((1-(cyclopropanecarbonyl)piperidin-3-yl)methyl)-5-(4′-(1-methyl-1H-pyrazol-4-yl)-[1,1′-biphenyl]-4-yl)-4,6-diazaspiro[2.4]hept-4-en-7-one], the inhibition at 10 µM was determined as 31% and the IC50 was more than 10 µM.
For `O=C(C1CC1)N1CC[C@@H](CN2C(=O)C3(CCCC3)N=C2c2ccc(-c3ccnc(N4CCNCC4)c3)cc2)C1` [compound 828, (R)-3-((1-(cyclopropanecarbonyl)pyrrolidin-3-yl)methyl)-2-(4-(2-(piperazin-1-yl)pyridin-4-yl)phenyl)-1,3-diazaspiro[4.4]non-1-en-4-one], in that order: 4% and more than 10 µM.
For `CN1CCN(c2cc(-c3ccc(C4=NC5(CCCC5)C(=O)N4C[C@@H]4CCN(C(=O)C5CC5)C4)cc3)ccn2)CC1` [compound 829, (R)-3-((1-(cyclopropanecarbonyl)pyrrolidin-3-yl)methyl)-2-(4-(2-(4-methylpiperazin-1-yl)pyridin-4-yl)phenyl)-1,3-diazaspiro[4.4]non-1-en-4-one], the inhibition at 10 µM came to 7% and the IC50 is more than 10 µM.
Regarding `Cc1cc(-c2cncc(Cl)c2)ccc1C1=NC2(CCCC2)C(=O)N1C[C@@H]1CCN(C(=O)C2CC2)C1` [compound 855, (R)-2-(4-(5-chloropyridin-3-yl)-2-methylphenyl)-3-((1-(cyclopropanecarbonyl)pyrrolidin-3-yl)methyl)-1,3-diazaspiro[4.4]non-1-rn-4-one], the inhibition at 10 µM was 52% and the IC50 was more than 10 µM.

As a reminder, the inhibition is the drop in the measured response relative to a control, in per cent.
